Measurements: PubChem BioAssay (NCI)
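1) Cells in 96-well plates. 2) Compound, 48 h, 5 concentrations. 3) Linear interpolation between surrounding doses. 4) Unreached endpoint = highest concentration. GI50 is the concentration that inhibits growth by half. TGI marks complete inhibition of growth.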

Tests used:
Assay in all cases: DTP human tumour cell line panel, 48 h
786-0 renal = test system: 786-0 renal
ACHN renal = test system: ACHN renal
BT-549 breast = test system: BT-549 breast
DU-145 prostate = test system: DU-145 prostate
HOP-92 NSCLC = test system: HOP-92 NSCLC
HT29 colon = test system: HT29 colon
IGROV1 ovarian = test system: IGROV1 ovarian
M14 melanoma = test system: M14 melanoma
MDA-N = test system: MDA-N
OVCAR-4 ovarian = test system: OVCAR-4 ovarian
OVCAR-8 ovarian = test system: OVCAR-8 ovarian
SK-MEL-5 melanoma = test system: SK-MEL-5 melanoma
SN12C renal = test system: SN12C renal
UACC-62 melanoma = test system: UACC-62 melanoma
HOP-62 NSCLC = test system: HOP-62 NSCLC
NCI/ADR-RES ovarian = test system: NCI/ADR-RES ovarian
SF-539 CNS = test system: SF-539 CNS
SR leukemia = test system: SR leukemia

Structure (SMILES) | TGI (786-0 renal) | TGI (ACHN renal) | TGI (BT-549 breast) | TGI (DU-145 prostate) | TGI (HOP-92 NSCLC) | TGI (HT29 colon) | TGI (IGROV1 ovarian) | TGI (M14 melanoma) | TGI (MDA-N) | TGI (OVCAR-4 ovarian) | TGI (OVCAR-8 ovarian) | TGI (SK-MEL-5 melanoma) | TGI (SN12C renal) | TGI (UACC-62 melanoma) | TGI (HOP-62 NSCLC) | TGI (NCI/ADR-RES ovarian) | TGI (SF-539 CNS) | TGI (SR leukemia) | GI50 (DU-145 prostate)
CC1(O)/C(=N/O)CC2CC1C2(C)C (stereo unspecified) | > 100 µM | > 100 µM | > 100 µM | > 100 µM | > 100 µM | > 100 µM | > 100 µM | > 100 µM | > 100 µM | > 100 µM | > 100 µM | > 100 µM | > 100 µM | > 100 µM |  |  |  |  | 
C[C@]12CC(c3ccccc3O1)C(C(=O)NC13CC4CC(CC(C4)C1)C3)C(=O)N2 (stereo partly specified) | 40.8 µM | > 100 µM | 61.8 µM | > 100 µM | 55.8 µM | 30.8 µM | > 100 µM | 35.9 µM | 43.8 µM | > 100 µM | 93.2 µM | 33.3 µM |  | > 100 µM | > 100 µM | 55.6 µM |  |  | 
O=C(Cc1ccccc1)c1ccc2[nH]c(=O)oc2c1 | > 100 µM | > 100 µM | > 100 µM | > 100 µM |  | > 100 µM | > 100 µM | > 100 µM | > 100 µM |  | > 100 µM |  | > 100 µM | > 100 µM | > 100 µM | 79 µM | > 100 µM | > 100 µM | 
Cc1ccc(S(=O)(=O)N2CCCCN(S(=O)(=O)c3ccc(C)cc3)Cc3ccccc3OCCOCCOc3c4cccc3Cc3cccc5c3OCCOCCOc3ccccc3CN(S(=O)(=O)c3ccc(C)cc3)CCCN(S(=O)(=O)c3ccc(C)cc3)Cc3ccccc3OCCOCCOc3c(cccc3C4)Cc3cccc(c3OCCOCCOc3ccccc3C2)C5)cc1 | > 100 µM | > 100 µM | > 100 µM | > 100 µM | > 100 µM | > 100 µM | > 100 µM | > 100 µM | > 100 µM | > 100 µM | > 100 µM | > 100 µM | > 100 µM | > 100 µM | > 100 µM | > 100 µM | > 100 µM |  | 
CC1C[C@]2(C)C(=S)Nc3ccccc3[C@@H]2Nc2ccccc21 (stereo partly specified) | 34.1 µM | 39.5 µM |  | 17.5 µM | 25.2 µM | 26.6 µM | 40.3 µM | 32.4 µM | 37.4 µM | 38.6 µM | 29.5 µM | 31.7 µM | 37.5 µM | 34.4 µM | 31.8 µM | 36.6 µM | 34.2 µM | > 100 µM | 
COC(=O)[C@H](Cc1ccccc1)NC(=O)N1CCN(C(=O)N[C@@H](Cc2ccccc2)C(=O)OC)CCN(C(=O)N[C@@H](Cc2ccccc2)C(=O)OC)CC1 | > 100 µM | > 100 µM | > 100 µM | > 100 µM | > 100 µM | > 100 µM | > 100 µM | > 100 µM | > 100 µM | > 100 µM | > 100 µM | > 100 µM | > 100 µM | > 100 µM | > 100 µM | > 100 µM |  |  | 
COc1ccc(OC)c2nc3c(C(=O)NCCN(C)C)cccc3nc12 | > 76.3 µM | > 100 µM | 33 µM | > 100 µM | 50.2 µM | > 44.3 µM | > 69.5 µM | 15.8 µM | 16 µM | 11.1 µM | 17.7 µM | 14.1 µM | > 36.1 µM | > 49.3 µM | 35.7 µM | > 61.1 µM | 20 µM |  | 
CC1N(C)C(=O)OC12CCN(CCCC(=O)c1ccc(F)cc1)CC2 (stereo unspecified) | > 100 µM | > 100 µM | > 100 µM | > 100 µM |  | > 100 µM | > 100 µM | > 100 µM | > 100 µM |  | > 100 µM | > 100 µM | > 100 µM | > 100 µM | > 100 µM | > 100 µM | > 100 µM |  | 
Cc1c2c(n(CCc3ccccc3)c1C)NN=C(C#N)S2(=O)=O | > 100 µM | > 100 µM | > 100 µM | > 100 µM |  | > 100 µM | > 100 µM | > 100 µM | > 100 µM | > 100 µM | > 100 µM | > 100 µM | > 100 µM | > 100 µM | > 100 µM | > 100 µM | > 100 µM | > 100 µM | 
CN(C)CCNc1ccc2c(=O)n(CCN(C)C)c(=O)n3c4ccc(N)cc4c(=O)c1c23 | 1.18 µM | 0.734 µM | 1.87 µM | 2.08 µM | 0.87 µM | 0.46 µM | 0.534 µM | 0.449 µM | 0.219 µM | 0.996 µM | 0.722 µM | 1.37 µM | 0.306 µM | 1.21 µM | 1.15 µM | 2.28 µM | 0.482 µM |  | 
CC(=O)OC1COC(n2c(N)c(C#N)c(C)c(C#N)c2=S)C(OC(C)=O)C1OC(C)=O (stereo unspecified) | > 100 µM | > 100 µM | > 100 µM | > 100 µM |  | > 100 µM | > 100 µM | > 100 µM | > 100 µM |  | > 100 µM | > 100 µM | > 100 µM | > 100 µM | > 100 µM | > 100 µM | > 100 µM | > 100 µM | > 100 µM
CC(C)(C)N1NC1C1NN1C(C)(C)C (stereo unspecified) | > 100 µM | > 100 µM |  | > 100 µM | > 100 µM | > 100 µM | > 100 µM | > 100 µM | > 100 µM | > 100 µM | > 100 µM | > 100 µM | > 100 µM | > 100 µM | > 100 µM | > 100 µM | > 100 µM | > 100 µM | 
O=[N+]([O-])C(=C(N1CCOCC1)N1CCOCC1)/C(Cl)=C(\Cl)[N+](=O)[O-] | 9.76 µM | 14.6 µM | 13.3 µM | 18 µM |  | 8.26 µM | 2.78 µM | 22.1 µM | 25.1 µM | 30.7 µM |  | 3.04 µM | 5.92 µM | 34.8 µM | 29.8 µM | 54.2 µM | 23.8 µM | > 100 µM | 
COC1OC(CO)C(O)C(OC(=O)c2cc(O)c(O)c(O)c2)C1OC(=O)c1cc(O)c(O)c(O)c1 (stereo unspecified) | > 100 µM | > 100 µM | > 100 µM | > 100 µM |  | > 100 µM | > 100 µM | > 100 µM | 55.7 µM | 90.4 µM | > 100 µM | > 100 µM | > 100 µM |  | > 100 µM | > 100 µM | > 100 µM | > 100 µM | 
CC(C)CCC[C@@H](C)C1CCC2[C@@H]3CCC4CC(CCC=C(c5cc(Cl)c(OC(=O)c6ccccc6)c(C(=O)O)c5)c5cc(Cl)c(OC(=O)c6ccccc6)c(C(=O)O)c5)CC[C@]4(C)C3CC[C@@]21C (stereo partly specified) | 75.2 µM | > 100 µM | > 100 µM | > 100 µM | 73.3 µM | > 100 µM | 94.3 µM | 29.3 µM | > 100 µM | > 100 µM | > 100 µM | 78.8 µM | > 100 µM | > 100 µM | > 100 µM | > 100 µM | > 100 µM |  | 
CCC(=O)COc1ccc(NC(NC(=O)C(C(F)(F)F)C(F)(F)F)(C(F)(F)F)C(F)(F)F)cc1 | 61.7 µM | > 100 µM |  | > 100 µM | > 100 µM | 70.3 µM | 44.9 µM | > 100 µM | 83.9 µM | > 100 µM | 62.8 µM | > 100 µM |  |  | > 100 µM | 42.7 µM | 55.2 µM | 37.1 µM | 
NC1CC(=O)c2cc(Br)sc21 (stereo unspecified) | > 100 µM | > 100 µM | > 100 µM | > 100 µM |  | > 100 µM | > 100 µM | > 100 µM | > 100 µM |  | > 100 µM | > 100 µM | > 100 µM | > 100 µM | > 100 µM | > 100 µM | > 100 µM | > 100 µM | 
Cc1cc(Cl)ccc1N=NC(=O)NNc1ccc(Cl)cc1C | 29.9 µM | 40.3 µM | 32.2 µM | 23.3 µM |  | 36.4 µM | 20.7 µM | 35.3 µM | 30.3 µM | 38.6 µM | 27.2 µM | 26.9 µM | 30.1 µM | 24.8 µM | 23.9 µM |  |  | 80.7 µM | 
CC1NC(/C(=C/c2ccccc2O)NC(=O)c2ccccc2)OC1=O (stereo unspecified) | > 50 µM | > 50 µM | > 50 µM |  | 46.6 µM | > 50 µM | > 50 µM | > 50 µM | > 50 µM | > 50 µM | > 50 µM | > 50 µM | > 50 µM | > 50 µM | > 50 µM | > 50 µM | 48 µM | > 50 µM | 
C=C[C@H]1CN2CCc3c([nH]c4c([C@H]5CCCN5C)c(O)ccc34)[C@@H]2C[C@@H]1C[C@H]1c2[nH]c3ccccc3c2CCN1C | 2.77 µM | 3.33 µM | 3.72 µM | 3 µM | 2.82 µM | 2.75 µM | 3.04 µM | 2.89 µM | 2.64 µM | 3.27 µM | 2.91 µM |  | 3.04 µM | 3.16 µM | 3 µM | 3.38 µM |  |  | 
C=CCOCn1ccc(=O)[nH]c1=O | > 100 µM | > 100 µM | > 100 µM | > 100 µM |  | > 100 µM | > 100 µM | > 100 µM | > 100 µM |  | > 100 µM | > 100 µM | > 100 µM | > 100 µM | > 100 µM |  | > 100 µM | > 100 µM | 
